From patent US20100317073A1, “MOLECULAR APPROACHES FOR THE OPTIMIZATION OF BIOFUEL PRODUCTION” (The Ohio State University Research Foundation, priority 2007, published 2010) come the findings set out here.

The test system of the assay is Chlorella protothecoides. Nature of the assay: Growth of Chlorella protothecoides in glycerol supplemented media: growth and total lipid yield. Type of assay: cell-based. The settings on record: glycerol supplemented medium. An excerpt: Note that Chlorella protothecoides growth is enhanced by glycerol; a byproduct of biodiesel.

On to `OCC(O)CO` [glycerol], for which the increase in growth result is “at least 10 fold” and the total lipid yield result is “enhanced”.
